Patent publication US7576115B2, “Heterocyclic compounds and thrombopoietin receptor activators” (Nissan Chemical Industries, Ltd., priority 2003, dated 2009)
pEC50: −log10 of the molar value.

Assays:
[1] = tested on: Human bone marrow CD34+ cells; experiment: Megakaryocyte colony stimulating activity (megakaryocyte colony forming method); type: cell-based; conditions: 11 days, colonies of at least 8 stained megakaryocyte cells
Experimental: The action of the compound of Synthetic Example 2 of the present invention on the proliferation, differentiation and maturation of megakaryocyte cells was measured by the megakaryocyte colony forming method using human bone marrow cells. Human bone marrow CD34^+ cells (Cambrex Bio Science Walkersville) were incubated on 2-well chamber slide for 11 days in a CO2 incubator (5% CO2, 37° C.) using MegaCult™-C (StemCell Technologies) containing 0.1% (v/v) of the compound of Synthetic Example 2 dissolved in DMSO. After dehydration and fixation, the cells were stained with an anti-glycoprotein IIb/IIIa antibody in accordance with the instruction by the manufacturer. The colonies consisting of at least 8 stained megakaryocyte cells in each well was counted under a microscope. The megakaryocyte colony counts of duplicate or more assays were averaged.

[2] = target: T1, thrombopoietin (TPO) receptor (Homo sapiens, UniProt P40238); experiment: Stimulation of proliferation of TPO-dependent cell line UT7/EPO-mpl (WST-8); type: cell-based; conditions: for pEC50: concentration that yields a growth rate corresponding to 50% of the growth of UT-7/EPO-mpl observed in the presence of 10 ng/ml TPO
T1 construct: expressed in transfected cells; host or cells: human leukemic cell line UT7/EPO, stably transformed (UT7/EPO-mpl)
T1 sequence (P40238 26-635): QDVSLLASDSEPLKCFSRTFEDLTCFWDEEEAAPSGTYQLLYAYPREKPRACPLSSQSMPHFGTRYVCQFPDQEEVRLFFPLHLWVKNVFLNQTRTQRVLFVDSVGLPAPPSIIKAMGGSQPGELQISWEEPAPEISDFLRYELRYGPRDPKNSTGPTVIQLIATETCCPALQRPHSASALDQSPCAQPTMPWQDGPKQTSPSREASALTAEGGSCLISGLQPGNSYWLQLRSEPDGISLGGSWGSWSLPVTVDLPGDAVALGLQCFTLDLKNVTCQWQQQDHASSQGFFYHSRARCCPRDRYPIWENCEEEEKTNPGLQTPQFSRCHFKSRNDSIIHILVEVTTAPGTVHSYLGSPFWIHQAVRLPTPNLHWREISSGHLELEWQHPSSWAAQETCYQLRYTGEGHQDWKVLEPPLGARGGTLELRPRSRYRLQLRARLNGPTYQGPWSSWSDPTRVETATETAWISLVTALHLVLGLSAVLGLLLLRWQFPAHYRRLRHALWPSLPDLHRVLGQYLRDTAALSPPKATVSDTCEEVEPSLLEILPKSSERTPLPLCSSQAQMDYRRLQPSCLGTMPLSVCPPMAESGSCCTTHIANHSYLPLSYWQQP
Experimental: The reactivity of the compound of Synthetic Example 3 of the present invention with thrombopoietin (TPO) receptor was assayed using a human leukemic cell line, UT7/EPO-mpl.
(§1) UT7/EPO-mpl is a stable transformed cell line obtained by introducing into human leukemic cell line UT7/EPO a vector that induces expression of human TPO receptor (c-mp1) under control of a cytomegaloviral promoter by the method of Takatoku et al. (J. Biol. Chem., 272:7259-7263 (1997)). […] These two cell lines were subcultured in Iscove's modified Dulbecco's medium (IMDM; GIBCO) containing 10% fetal bovine serum (FBS; TRACE SCIENTIFIC, Thermo Electron or BioWest) using a CO2 incubator (5% CO2, 37° C.)
(§2) The subcultured cells described above were washed twice with phosphate buffered saline (PBS) and suspended in IMDM containing 10% FBS at a cell density of 6×10^4 cells/ml. The cell suspension was transferred to a 96-well tissue culture plate (CORNING) in 100 μl aliquots. Then either TPO (PeproTech EC) or the compound of Synthetic Example 3 dissolved in dimethyl sulfoxide (DMSO) was diluted 83-fold with IMDM containing 10% FBS and added to the aforementioned cell suspension in 20 μl aliquots. The suspension was incubated in a CO2 incubator (5% Co2, 37° C.) for 4 days. Cell proliferation was assayed using WST-8 reagent (Kishida Chemical Co., Ltd.) according to instructions by the manufacturer. A 10 μl aliquot of 5 mM WST-8 reagent solution was added to each well of the tissue culture plate, and the plate was incubated at 37° C. for 4 h. The formazan pigment generated was detected by measuring the absorbance at 450 nm with a 96-well microplate reader (Nihon Molecular Devices, Spectramax 190).
The compounds of the following Synthetic Examples were tested according to the method of Assay Example 1 to determine the concentration of each compound that yields a growth rate corresponding to 50% of the growth of human leukemic cell line UT-7/EPO-mpl observed in the presence of 10 ng/ml TPO (EC50).

[3] = tested on: UT7/EPO cells; experiment: Proliferation of mother cell line UT7/EPO expressing no TPO receptor (WST-8); type: cell-based, human; conditions: FIG. 2
Experimental: as §1
as §2, with “A 10 μl aliquot of 5 mM WST-8 reagent solution was added to each well of the tissue culture plate, and the plate was incubated at 37° C. for 4 h.” left out

pEC50 [2]	Structure (SMILES)	further results
	CC(=NNC(=S)Nc1ccc(C(=O)O)cc1)c1nn(C)c(-c2ccc(Cl)c(Cl)c2)c1O [Synthetic Example 2, 4-{[(2-{1-[5-(3,4-dichlorophenyl)-4-hydroxy-1-methyl-1H-pyrazol-3-yl]ethylidene}hydrazino)carbonothioyl]amino}benzoic acid]	Megakaryocyte colony Count ([1]; Concentration 0.3 μg/ml): 25; Megakaryocyte colony Count ([1]; Concentration 1 μg/ml): 48
	CC(=NNC(=O)c1ccc(C(=O)O)cc1)c1nn(C)c(-c2ccc(C(C)(C)C)cc2)c1O [Synthetic Example 3, 4-[(2-{1-[5-(4-tert-butylphenyl)-4-hydroxy-1-methyl-1H-pyrazol-3-yl]ethylidene}hydrazino)carbonyl]benzoic acid]	proliferation of TPO-responsive UT7/EPO-mpl cells ([2]; FIG. 1, concentration-dependent, 4 days incubation, WST-8 absorbance at 450 nm): stimulated; effect on proliferation of UT7/EPO, the mother cell line [3]: no effect
8.15	C/C(=N\NC(=S)Nc1cccc(C(=O)O)c1)c1csc(-c2ccc(C)c(C)c2)c1O [compound 136]	
8.25	C/C(=N\NC(=S)Nc1ccc2[nH]c(=O)[nH]c2c1)c1csc(-c2ccc(Cl)c(Cl)c2)c1O [compound 154]	
7.95	C/C(=N\NC(=S)Nc1ccc2cn[nH]c2c1)c1nn(C)c(-c2ccc(Cl)c(Cl)c2)c1O [compound 155]	
8.20	CC(=O)Nc1cccc(NC(=S)N/N=C(\C)c2nn(C)c(-c3ccc(C(F)(F)F)cc3)c2O)c1 [compound 157]	
8.10	C/C(=N\NC(=S)Nc1ccccc1CC(N)=O)c1nn(C)c(-c2ccc(C(F)(F)F)cc2)c1O [compound 161]	
8.24	C/C(=N\NC(=S)Nc1cc(C(=O)O)cc([N+](=O)[O-])c1)c1nn(C)c(-c2ccc(Cl)c(Cl)c2)c1O [compound 164]	
8.13	C/C(=N\NC(=O)c1ccc2cc(C(=O)O)ccc2c1)c1csc(-c2ccc(Cl)c(Cl)c2)c1O [compound 169]	
7.43	C/C(=N\NC(=O)c1ccc(N)c(N)c1)c1csc(-c2ccc(Cl)c(Cl)c2)c1O [compound 176]	
8.19	C/C(=N\NC(=O)c1ccc(C(=O)NC2CCCC2)s1)c1csc(-c2ccc(Cl)c(Cl)c2)c1O [compound 178]	
8.18	C/C(=N\NC(=O)c1ccc(C(N)=O)s1)c1csc(-c2ccc(Cl)c(Cl)c2)c1O [compound 179]	
8.25	C/C(=N\NC(=O)c1sc(N)nc1C(F)(F)F)c1csc(-c2ccc(Cl)c(Cl)c2)c1O [compound 181]	
9.28	C/C(=N\NC(=O)c1ccc(C(=O)O)c([N+](=O)[O-])c1)c1csc(-c2ccc(C)c(C)c2)c1O [compound 212]	
8.39	C/C(=N\NC(=O)c1ccc(C(=O)NCCCN(C)C)s1)c1csc(-c2ccc(Cl)c(Cl)c2)c1O [compound 226]	
8.81	C/C(=N\NC(=O)c1ccc(C(=O)O)cc1N)c1nn(C)c(-c2ccc(C(F)(F)F)cc2)c1O [compound 228]	
